US9777020B2, “Furo-3-carboxamide derivatives and methods of use” (AbbVie Inc., priority 2014, dated 2017)
Marks after values point to notes of the source that are not given here.

Tests used:
[1] = system: MIA-induced osteoarthritis pain; experiment: Rat model of mono-iodoacetic acid (MIA) induced osteoarthritis pain, hind limb grip force; format: in vivo; conditions: mean percent effect
Procedure: Members of the TrkA inhibitors described above were tested and found effective in reducing osteoarthritis pain. The compounds tested were assessed in an in vivo model well known to those skilled in the art, the rat model of mono-iodoacetic acid induced osteoarthritis pain. A general review of various models of pain can be found in Joshi and Honore, Expert Opinion in Drug Discovery (2004) 1, pp. 323-334, and in the book ‘Drug Discovery and Evaluation, 2nd edition (H. Gerhard Vogel, editor; Springer-Verlag, New York, 2002; pp. 702-706). Pain behavior was assessed by measurement of hind limb grip force (GF) in adult osteoarthritic rats. Male Sprague Dawley rats, generally weighing 125-150 g, were injected in the unilateral knee join with a single intra-articular injection of sodium monoiodoacetate (MIA). Rats were tested at 21-28 days following MIA injection. A behavioral measure of activity-induced pain was carried out. Measurements of the peak hind limb grip force were conducted by recording the maximum compressive force (CFmax), in grams of force, exerted on a hind limb strain gauge setup, in a commercially available grip force measurement system (Columbus Instruments, Columbus, Ohio). During testing, each rat was gently restrained by grasping it around its rib cage and then allowed to grasp the wire mesh frame attached to the strain gauge. The experimenter then moved the animal in a rostral-to-caudal direction until the grip was broken. Each rat was sequentially tested twice at an approximately 2-3 minute interval to obtain a raw mean grip force (CFmax). This raw mean grip force data was in turn converted to a maximum hindlimb cumulative compressive force (CFmax), as the grams of force/kg of body weight, for each animal. For evaluating the compound effects, the hind limb grip force testing in the MIA-treated rats was conducted generally 30-60 minutes after dosing with the test compound. A group of age-matched naïve (not injected with MIA) animals was added as a comparator to the drug-dosed groups. The vehicle control response for each group of MIA-treated animals was defined as the 0% response (0% effect), whereas the naïve control group was defined as the normal response and as 100% effect. The % effect=(Treatment CFmax−Vehicle CFmax)[…]]×100). Higher % effect numbers indicate increased relief from the pain in the model, with 100% indicating a return to the level of response seen in normal (non-osteoarthritic) animals. All experiments evaluating drug effects in this model were conducted in a randomized blinded fashion. Male Sprague Dawley rats (generally 250-300 g body weight at the time of testing) obtained from Charles River Laboratories (Wilmington, Mass.) were used for all experiments, unless indicated otherwise. The animals were housed in Association for Assessment and Accreditation of Laboratory Animal Care (AAALAC) approved facilities at AbbVie in a temperature-regulated environment under a controlled 12-hour light-dark cycle, with lights on at 6:00 a.m. Food and water were available ad libitum at all times except during testing. All testing was done following procedures outlined in protocols approved by AbbVie Institutional Animal Care and Use Committee.

TrkA = TrkA (Homo sapiens (Human), UniProt P04629); experiment: TrkA kinase HTRF enzyme inhibition assay; format: biochemical; conditions: TrkA pre-incubated with 200 μM ATP
Summary of the method: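 HTRF ratio read-out of biotin-peptide (125 nM) phosphorylation, 1 h reaction after TrkA (2-10 nM) auto-activation with ATP (200 μM) for 20 min and 10 min compound pre-incubation in 50 mM HEPES pH 7.4 with MgCl2/MnCl2. Percent inhibition from initial rates in duplicate, fitted to single-site equation for IC50.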

[2] = 30 mg/kg p.o., tested 30-60 minutes postdosing

Chain of TrkA (P04629 33-796): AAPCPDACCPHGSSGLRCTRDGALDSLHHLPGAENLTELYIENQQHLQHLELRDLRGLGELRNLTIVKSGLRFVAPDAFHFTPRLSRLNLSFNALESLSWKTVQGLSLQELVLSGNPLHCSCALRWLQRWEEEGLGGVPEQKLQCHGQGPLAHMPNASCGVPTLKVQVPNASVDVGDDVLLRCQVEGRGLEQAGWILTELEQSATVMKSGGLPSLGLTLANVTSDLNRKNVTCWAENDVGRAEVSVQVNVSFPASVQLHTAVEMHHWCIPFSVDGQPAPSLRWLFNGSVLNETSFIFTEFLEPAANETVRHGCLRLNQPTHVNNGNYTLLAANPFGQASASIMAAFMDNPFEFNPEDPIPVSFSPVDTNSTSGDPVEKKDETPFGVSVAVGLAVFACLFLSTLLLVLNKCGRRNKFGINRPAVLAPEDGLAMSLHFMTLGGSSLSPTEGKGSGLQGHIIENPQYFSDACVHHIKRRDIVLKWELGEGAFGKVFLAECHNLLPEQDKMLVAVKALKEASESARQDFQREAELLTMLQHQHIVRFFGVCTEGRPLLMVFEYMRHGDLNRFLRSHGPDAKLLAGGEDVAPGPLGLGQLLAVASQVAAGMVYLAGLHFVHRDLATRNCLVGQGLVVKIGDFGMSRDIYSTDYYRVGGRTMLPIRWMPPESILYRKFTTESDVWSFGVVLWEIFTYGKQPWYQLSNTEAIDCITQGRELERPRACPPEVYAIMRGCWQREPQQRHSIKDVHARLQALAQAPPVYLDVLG

| IC50 (TrkA) [µM] | Compound | % Effect (hind limb grip force, MIA model) [1, 2] | % Effect (hind limb grip force, MIA model) ([1]; 100 mg/kg p.o., tested 3 hours post dose) [% **] | % Effect (hind limb grip force, MIA model) ([1]; 30 mg/kg p.o., tested 3 hours post dose) [% ***] | % Effect (hind limb grip force, MIA model) ([1]; 300 mg/kg p.o., tested 3 hours post dose) [% ***] |
| --- | --- | --- | --- | --- | --- |
|  | CCOc1nc(N2CCN(C(C)=O)CC2)ccc1NC(=O)c1coc2c1C(=O)N(CCO)CC2 [Example 9, N-[6-(4-acetylpiperazin-1-yl)-2-ethoxypyridin-3-yl]-5-(2-hydroxyethyl)-4-oxo-4,5,6,7-tetrahydrofuro[3,2-c]pyridine-3-carboxamide] | 69% ** |  |  |  |
| 0.0181 | COc1nc(N2CCN(C(=O)N3CCOCC3)CC2)ccc1NC(=O)c1coc2c1C(=O)NC(C)(C)C2 [Example 121, N-{2-methoxy-6-[4-(morpholin-4-ylcarbonyl)piperazin-1-yl]pyridin-3-yl}-6,6-dimethyl-4-oxo-4,5,6,7-tetrahydrofuro[3,2-c]pyridine-3-carboxamide] | 74% *** |  |  |  |
| 0.025 | COc1cc(N2CCN(C(C)=O)CC2)ccc1NC(=O)c1coc2c1C(=O)NC(C)(C)C2 [Example 126, N-[4-(4-acetylpiperazin-1-yl)-2-methoxyphenyl]-6,6-dimethyl-4-oxo-4,5,6,7-tetrahydrofuro[3,2-c]pyridine-3-carboxamide] |  | 47 |  |  |
| 0.0054 | CCOc1nc(N2CCN(C(C)=O)CC2)ccc1NC(=O)c1coc2c1C(=O)NC(C)(C)C2 [Example 128, N-[6-(4-acetylpiperazin-1-yl)-2-ethoxypyridin-3-yl]-6,6-dimethyl-4-oxo-4,5,6,7-tetrahydrofuro[3,2-c]pyridine-3-carboxamide] |  |  | 55 |  |
| 0.0161 | Cn1cc2cc(NC(=O)c3coc4c3C(=O)CC(C)(C)C4)ccc2n1 [Example 147, 6,6-dimethyl-N-(2-methyl-2H-indazol-5-yl)-4-oxo-4,5,6,7-tetrahydro-1-benzofuran-3-carboxamide] |  |  |  | 69 |
| 0.0122 | COCCOc1nc(N2CCN(C(C)=O)CC2)ccc1NC(=O)c1coc2c1C(=O)NC(C)(C)C2 [Example 177, N-[6-(4-acetylpiperazin-1-yl)-2-(2-methoxyethoxyl)pyridin-3-yl]-6,6-dimethyl-4-oxo-4,5,6,7-tetrahydrofuro[3,2-c]pyridine-3-carboxamide] | 68% *** |  |  |  |
